From paper PMC12528650, “The CsMYB36-CsSWEET17 module mediates the calcium-induced sucrose accumulation in citrus” (Horticulture Research, 2025)

Biological target: T1, CsSWEET17 (Citrus sinensis, UniProt A0ACB8I933)
T1 construct: gene KPL71_027705; full-length CDS (705 bp, about 235 residues) in pDR196, expressed in Saccharomyces cerevisiae CSY4000 (W303 for esculin); seven TMs
Experiment: […]-sucrose uptake in CSY4000 yeast, nonlinear Michaelis-Menten fit
Type: cell-based
Settings: pH 5.5; 30 °C; proton-coupled transport; labelled compound

T1 sequence (A0ACB8I933 entry or part of it): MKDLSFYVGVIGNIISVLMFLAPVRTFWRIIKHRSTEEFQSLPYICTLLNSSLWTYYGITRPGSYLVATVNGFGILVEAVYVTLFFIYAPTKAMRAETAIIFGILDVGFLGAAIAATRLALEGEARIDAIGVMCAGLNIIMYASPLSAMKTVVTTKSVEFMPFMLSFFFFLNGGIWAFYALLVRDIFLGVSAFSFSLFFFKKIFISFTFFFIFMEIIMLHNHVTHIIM

SMILES: OC[C@H]1O[C@@](CO)(O[C@H]2O[C@H](CO)[C@@H](O)[C@H](O)[C@H]2O)[C@@H](O)[C@@H]1O [sucrose]
- Km: 291 µM
